Results: patent publication US20160199517A1, “MRI EVALUATION OF HETEROGENEOUS TISSUE” (The Board of Trustees of the Leland Stanford Junior …, priority 2015, published 2016)

Test system: Ca^2+ channel
Test: MEMRI signal modulated by Ca2+ channel activity in single cell culture
Type: cell-based, human
Settings: cells labelled with Mn^2+; Ca^2+ channel antagonist or agonist

With (s)-Bay K8644 the MEMRI signal was “increased”.
